Test results taken from patent US9796733B2, “Imidazo-pyrazine derivatives useful as soluble guanylate cyclase activators” (Merck Sharp & Dohme Corp., priority 2014, dated 2017).
pEC50: −log10 of the molar value.

Key:
[1] = system: Spontaneously hypertensive rats (SHR); experiment: Acute efficacy in spontaneously hypertensive rats (SHR): telemetry blood pressure lowering after a single oral dose; type: in vivo, rat
Source text: Acute Efficacy in Spontaneously Hypertensive Rats (SHR)
Spontaneously hypertensive rats (SHR, male, Charles River) were implanted with DSI TA11PA-C40 telemetry device (Data Sciences, Inc., St. Paul, Minn.) under isoflurane or ketamine/metomidine anesthesia. The telemetry unit catheter was inserted into the descending aorta via the femoral artery and the telemetry device was implanted subcutaneously in the left flank area. Animals were allowed to recover from surgery for 14 days before the start of any studies. Blood pressure, heart rate, and activity signals from conscious, freely moving rats were recorded continuously for 30 seconds every 10 minutes. On the day prior to administration of compound, a single oral dose of vehicle (10% transcutol/20% Cremophor/70% water) was administered to all animals to establish baseline control data. The blood pressure lowering efficacy of compound (PO) or vehicle was evaluated following a single oral gavage. Data were collected as hourly averages, and changes in blood pressure were calculated by subtracting control baseline data on an hourly basis. Animals were maintained on normal diet with a 12 hour light-dark cycle.
Maximum peak decreases of systolic blood pressure (SBP) in SHR at a particular P.O. dose (mpk milligrams per kilogram) for the following representative compounds are provided. Category A=SBP in SHRs<20 mmHg; Category B=SBP in SHRs 20-40 mmHg; Category C=SBP in SHRs>40 mmHg

[2] = target: T1, sGC α1/β1 heterodimer (Homo sapiens, UniProt Q02108+Q02153); experiment: Cell-based sGC functional assay (CASA assay): cGMP generation in CHO-K1/sGC cells, HTRF detection; details: for Emax: CHO-K1, percent activation relative to standard Compound A in CHO-K1/sGC cells, read-out: % Act.; for pEC50: inflection point (IP) of cGMP generation in CHO-K1/sGC cells, 4P fit, activity expressed as percentage of Compound A
T1 construct: expressed in transfected cells; host or cells: CHO-K1 (clone #7, CHO-K1/sGC)
T1 sequence (Q02108 1-690): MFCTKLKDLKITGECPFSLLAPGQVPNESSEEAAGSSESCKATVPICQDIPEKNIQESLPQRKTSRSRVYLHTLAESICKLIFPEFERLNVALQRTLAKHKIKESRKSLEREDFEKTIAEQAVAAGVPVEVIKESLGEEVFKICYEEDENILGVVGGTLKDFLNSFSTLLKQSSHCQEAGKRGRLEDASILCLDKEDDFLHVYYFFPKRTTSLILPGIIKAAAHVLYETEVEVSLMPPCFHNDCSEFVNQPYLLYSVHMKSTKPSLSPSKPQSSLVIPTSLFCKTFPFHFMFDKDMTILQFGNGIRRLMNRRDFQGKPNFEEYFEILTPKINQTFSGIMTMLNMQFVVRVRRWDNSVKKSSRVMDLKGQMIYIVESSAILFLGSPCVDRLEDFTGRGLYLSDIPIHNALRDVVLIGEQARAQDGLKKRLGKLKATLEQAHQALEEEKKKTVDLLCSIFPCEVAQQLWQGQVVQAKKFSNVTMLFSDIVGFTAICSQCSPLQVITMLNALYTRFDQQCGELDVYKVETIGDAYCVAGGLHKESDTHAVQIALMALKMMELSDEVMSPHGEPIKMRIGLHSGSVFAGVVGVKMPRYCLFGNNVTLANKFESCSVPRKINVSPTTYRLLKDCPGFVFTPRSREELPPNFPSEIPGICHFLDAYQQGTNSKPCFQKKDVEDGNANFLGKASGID
T1 sequence (Q02153 1-619): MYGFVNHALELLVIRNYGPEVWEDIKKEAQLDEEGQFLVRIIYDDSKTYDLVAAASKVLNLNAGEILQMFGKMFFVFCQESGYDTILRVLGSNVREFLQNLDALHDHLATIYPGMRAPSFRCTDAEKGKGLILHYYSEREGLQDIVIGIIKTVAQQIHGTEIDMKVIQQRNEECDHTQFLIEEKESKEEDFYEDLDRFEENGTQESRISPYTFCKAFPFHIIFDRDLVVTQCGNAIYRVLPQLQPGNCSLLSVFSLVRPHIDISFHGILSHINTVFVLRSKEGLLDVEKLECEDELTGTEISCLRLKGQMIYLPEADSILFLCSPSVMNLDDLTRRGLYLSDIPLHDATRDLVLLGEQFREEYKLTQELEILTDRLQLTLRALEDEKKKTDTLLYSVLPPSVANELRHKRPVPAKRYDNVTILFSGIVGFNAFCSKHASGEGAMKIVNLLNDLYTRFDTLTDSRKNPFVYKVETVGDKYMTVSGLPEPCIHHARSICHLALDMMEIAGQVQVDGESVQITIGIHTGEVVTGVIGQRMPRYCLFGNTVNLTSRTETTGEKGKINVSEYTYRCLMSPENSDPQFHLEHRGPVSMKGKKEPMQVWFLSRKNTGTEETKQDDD
Outline: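 cGMP was quantified by HTRF after 1 hr, 37° C exposure of thawed CHO-K1 cells expressing sGC α1/β1 to compound, with or without 1 μM DETA-NO. IBMX (0.5 mM) blocked cGMP breakdown, and DMSO was 2.5% final. Percent of standard Compound A's maximal cGMP was fitted (4P) for inflection point.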

| SMILES | Maximum peak decrease of systolic blood pressure (SBP) in SHR, Cat. ([1]; P.O. 0.3 mpk) | Emax [2] [%] | pEC50 [2] | Maximum peak decrease of systolic blood pressure (SBP) in SHR, Cat. ([1]; P.O. 1.0 mpk) | Maximum peak decrease of systolic blood pressure (SBP) in SHR, Cat. ([1]; P.O. 3.0 mpk) |
| --- | --- | --- | --- | --- | --- |
| CCCCc1nc(-c2nc(N)c3c(n2)NC(=O)C3(C)c2ccc(F)cc2)cn2ccnc12 (stereo not drawn) [Example 8A, 4-amino-2-(8-butylimidazo[1,2-a]pyrazin-6-yl)-5-(4-fluorophenyl)-5-methyl-5H-pyrrolo[2,3-d]pyrimidin-6(7H)-one] | C (Category C=SBP in SHRs>40 mmHg) | 137 | 7.35 |  |  |
| CCCCc1nc(-c2nc(N)c3c(n2)NC(=O)C3(C)c2ccc(Cl)cc2)cn2ccnc12 (stereo not drawn) [Example 10A, 4-amino-2-(8-butylimidazo[1,2-a]pyrazin-6-yl)-5-(4-chlorophenyl)-5-methyl-5H-pyrrolo[2,3-d]pyrimidin-6(7H)-one] | C (Category C=SBP in SHRs>40 mmHg) | 120 | 7.25 |  |  |
| CC(C)CCc1nc(-c2nc(N)c3c(n2)NC(=O)C3(C)c2ccc(F)cn2)cn2ccnc12 (stereo not drawn) [Example 11B, 4-amino-5-(5-fluoropyridin-2-yl)-2-(8-isopentylimidazo[1,2-a]pyrazin-6-yl)-5-methyl-5H-pyrrolo[2,3-d]pyrimidin-6(7H)-one] |  | 135 | 7.34 | B (Category B=SBP in SHRs 20-40 mmHg) |  |
| CC(C)CCc1nc(-c2nc(N)c3c(n2)NC(=O)C3(C)c2ccc(Cl)cc2)cn2ccnc12 (stereo not drawn) [Example 14A, 4-amino-5-(4-chlorophenyl)-2-(8-isopentylimidazo[1,2-a]pyrazin-6-yl)-5-methyl-5H-pyrrolo[2,3-d]pyrimidin-6(7H)-one] |  | 113 | 6.95 | C (Category C=SBP in SHRs>40 mmHg) |  |
| CC1(c2ccc(Cl)cc2)C(=O)Nc2nc(-c3cn4ccnc4c(C4CCC4)n3)nc(N)c21 (stereo not drawn) [Example 15A, 4-amino-5-(4-chlorophenyl)-2-(8-cyclobutylimidazo[1,2-a]pyrazin-6-yl)-5-methyl-5H-pyrrolo[2,3-d]pyrimidin-6(7H)-one] |  | 119 | 7.09 | C (Category C=SBP in SHRs>40 mmHg) |  |
| CCCCc1nc(-c2nc(N)c3c(n2)NC(=O)C3(C)c2ccc(F)cn2)cn2ccnc12 (stereo not drawn) [Example 16B, 4-amino-2-(8-butylimidazo[1,2-a]pyrazin-6-yl)-5-(5-fluoropyridin-2-yl)-5-methyl-5H-pyrrolo[2,3-d]pyrimidin-6(7H)-one] | C (Category C=SBP in SHRs>40 mmHg) | 117 | 6.87 |  |  |
| CC(C)Cc1nc(-c2nc(N)c3c(n2)NC(=O)C3(C)c2ccc(Cl)cc2)cn2ccnc12 (stereo not drawn) [Example 20A, 4-amino-5-(4-chlorophenyl)-2-(8-isobutylimidazo[1,2-a]pyrazin-6-yl)-5-methyl-5H-pyrrolo[2,3-d]pyrimidin-6(7H)-one] |  | 108 | 6.64 | C (Category C=SBP in SHRs>40 mmHg) |  |
| CCCc1nc(-c2nc(N)c3c(n2)NC(=O)C3(c2ccc(Cl)cc2)C2CC2)cn2ccnc12 (stereo not drawn) [Example 26B, 4-amino-5-(4-chlorophenyl)-5-cyclopropyl-2-(8-propylimidazo[1,2-a]pyrazin-6-yl)-5H-pyrrolo[2,3-d]pyrimidin-6(7H)-one] |  | 81 | 6.60 |  | B (Category B=SBP in SHRs 20-40 mmHg) |
| CC1(c2nnc(C3CC3)s2)C(=O)Nc2nc(-c3cn4ccnc4c(Cc4ccc(F)cc4)n3)nc(N)c21 (stereo not drawn) [Example 32A, 4-amino-5-(5-cyclopropyl-1,3,4-thiadiazol-2-yl)-2-(8-(4-fluorobenzyl)imidazo[1,2-a]pyrazin-6-yl)-5-methyl-5H-pyrrolo[2,3-d]pyrimidin-6(7H)-one] |  | 137 | 7.24 | B (Category B=SBP in SHRs 20-40 mmHg) |  |
| Cc1nnc(C2(C)C(=O)Nc3nc(-c4cn5ccnc5c(Cc5ccc(F)cc5)n4)nc(N)c32)s1 (stereo not drawn) [Example 33A, 4-amino-2-(8-(4-fluorobenzyl)imidazo[1,2-a]pyrazin-6-yl)-5-methyl-5-(5-methyl-1,3,4-thiadiazol-2-yl)-5H-pyrrolo[2,3-d]pyrimidin-6(7H)-one] |  | 135 | 6.89 | B (Category B=SBP in SHRs 20-40 mmHg) |  |
| CC1(c2nnc(C3CC3)o2)C(=O)Nc2nc(-c3cn4ccnc4c(Cc4ccc(F)cc4)n3)nc(N)c21 (stereo not drawn) [Example 34A, 4-amino-5-(5-cyclopropyl-1,3,4-oxadiazol-2-yl)-2-(8-(4-fluorobenzyl)imidazo[1,2-a]pyrazin-6-yl)-5-methyl-5H-pyrrolo[2,3-d]pyrimidin-6(7H)-one] |  | 150 | 6.47 |  | B (Category B=SBP in SHRs 20-40 mmHg) |
| Cc1nnc(C2(C3CC3)C(=O)Nc3nc(-c4cn5ccnc5c(CCC(F)(F)C(F)(F)F)n4)nc(N)c32)s1 (stereo not drawn) [Example 53A, 4-amino-5-cyclopropyl-5-(5-methyl-1,3,4-thiadiazol-2-yl)-2-(8-(3,3,4,4,4-pentafluorobutyl)imidazo[1,2-a]pyrazin-6-yl)-5H-pyrrolo[2,3-d]pyrimidin-6(7H)-one] |  | 104 | 6.88 |  | C (Category C=SBP in SHRs>40 mmHg) |
| CC1(c2nnc(C3CC3)s2)C(=O)Nc2nc(-c3cn4ccnc4c(CCC(F)(F)C(F)(F)F)n3)nc(N)c21 (stereo not drawn) [Example 59A, 4-amino-5-(5-cyclopropyl-1,3,4-thiadiazol-2-yl)-5-methyl-2-(8-(3,3,4,4,4-pentafluorobutyl)imidazo[1,2-a]pyrazin-6-yl)-5H-pyrrolo[2,3-d]pyrimidin-6(7H)-one] |  | 97 | 7.17 | A (Category A=SBP in SHRs<20 mmHg) |  |
| CC1(C(=O)NC2CC2)C(=O)Nc2nc(-c3cn4ccnc4c(CCC(F)(F)C(F)(F)F)n3)nc(N)c21 (stereo not drawn) [Example 60A, 4-amino-N-cyclopropyl-5-methyl-6-oxo-2-(8-(3,3,4,4,4-pentafluorobutyl)imidazo[1,2-a]pyrazin-6-yl)-6,7-dihydro-5H-pyrrolo[2,3-d]pyrimidine-5-carboxamide] |  | 41 | 7.06 | A (Category A=SBP in SHRs<20 mmHg) |  |
| CC1(c2ccc(F)cn2)C(=O)Nc2nc(-c3cn4ccnc4c(Cc4ccc(F)cc4)n3)nc(N)c21 (stereo not drawn) [Example 69B, 4-Amino-2-(8-(4-fluorobenzyl)imidazo[1,2-a]pyrazin-6-yl)-5-(5-fluoropyridin-2-yl)-5-methyl-5H-pyrrolo[2,3-d]pyrimidin-6(7H)-one] | C (Category C=SBP in SHRs>40 mmHg) | 116 | 8.05 |  |  |
